Results on ten compounds are retold here after patent US20080004325A1, “PTP1B inhibitors” (Wyeth, priority 2006, published 2008).

pKi: −log10 of the molar value.

The target of this assay is T1, catalytic domain of human PTP1b (residues 1-299) (Homo sapiens, UniProt P18031).
T1 construct: catalytic domain of human PTP1b (residues 1-299); made in house; host or cells: E. coli
T1 sequence (P18031 1-299): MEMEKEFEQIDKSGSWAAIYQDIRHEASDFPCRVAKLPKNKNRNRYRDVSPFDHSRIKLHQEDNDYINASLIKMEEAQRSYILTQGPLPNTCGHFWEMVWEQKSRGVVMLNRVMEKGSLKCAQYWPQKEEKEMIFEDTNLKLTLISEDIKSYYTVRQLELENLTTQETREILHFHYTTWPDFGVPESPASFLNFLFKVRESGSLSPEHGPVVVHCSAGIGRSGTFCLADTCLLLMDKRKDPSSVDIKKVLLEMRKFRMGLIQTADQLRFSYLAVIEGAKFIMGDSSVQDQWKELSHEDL
As to the kind of experiment: PTP1b pNPP hydrolysis inhibition assay. Format: biochemical. Conditions: pNPP substrate, 25° C., pH 7.0, three fixed inhibitor concentrations; read-out: Ki Micromolar. The method, then: The p-nitrophenyl phosphate (pNPP) substrate was purchased from Sigma. PTPase activity was measured at room temperature (25° C.) in a 200 ul reaction mixture with various concentrations of substrate. Reactions began with enzyme addition and were quenched after 2-3 minutes with 1N NaOH. Background hydrolysis of pNPP was measured without addition of enzyme. […] All experiments were performed in 50 mM 3,3-dimethylglutarate buffer (pH 7.0), with 10 mM DTT, 1 mM EDTA, and with the ionic strength adjusted to 0.15 M with NaCl. All solutions were prepared in distilled, deionized water. For initial evaluation of each compound, percent inhibition was determined for two concentrations of compound (for example at 200 uM and 20 uM) at a fixed pNPP concentration.
Percent inhibition was determined following background subtraction of the non-enzymatic hydrolysis rate compared to no inhibitor (DMSO only) controls. Inhibition constants and inhibition patterns were evaluated using the direct curve-fitting program GraFit (Erithacus Software Limited).
A word on the pKi: it is the negative decadic logarithm of the Ki, by convention in mol/L. `Cc1c(N2CC(=O)NS2(=O)=O)csc1-c1cccc(NC2CCN(S(=O)(=O)Cc3ccccc3)CC2)c1` [5-[5-(3-{[1-(benzylsulfonyl)piperidine-4-yl]amino}phenyl)-4-methyl-3-thienyl]-1,2,5-thiadiazolidin-3-one 1,1-dioxide]: the pKi was 5.40. In the case of `NS(=O)(=O)N(c1cccc(-c2scc(N3CC(=O)NS3(=O)=O)c2Cl)c1)C1CCCCC1` [N-{3-[3-chloro-4-(1,1-dioxido-4-oxo-1,2,5-thiadiazolidin-2-yl)-2-thienyl]phenyl}-N-cyclohexylsulfamide], the pKi is 5.77. The value for `Cc1c(N2CC(=O)NS2(=O)=O)csc1-c1cccc(NC2CC(C)(C)CC(C)(C)C2)c1` was 4.82; that for `O=C1CN(c2csc(-c3cccc(NC4CCCCC4)c3)c2)S(=O)(=O)N1` [5-5-[3-(cyclohexylamino)phenyl]-3-thienyl}-1,2,5-thiadiazolidin-3-one 1,1-dioxide] was 4.92; that for `CC1C(=O)NS(=O)(=O)N1c1csc(-c2ccccc2)c1` (stereo not shown) [4-methyl-5-(5-phenyl-3-thienyl)-1,2,5-thiadiazolidin-3-one 1,1-dioxide] was less than 3.00. The value for `Cc1c(N2CC(=O)NS2(=O)=O)csc1-c1cccc([N+](=O)[O-])c1` [5-[4-methyl-5-(3-nitrophenyl)-3-thienyll-1,2,5-thiadiazolidin-3-one 1,1-dioxide] was 4.47. Take `Cc1c(N2CC(=O)NS2(=O)=O)csc1-c1ccccc1` [5-(4-methyl-5-phenyl-3-thienyl)-1,2,5-thiadiazolidin-3-one 1,1-dioxide]: the pKi is 4.39. The value for `O=C1CN(c2csc(-c3ccccc3)c2Br)S(=O)(=O)N1` [5-(4-bromo-5-phenyl-3-thienyl)-1,2,5-thiadiazolidin-3-one 1,1-dioxide] was 4.74; that for `O=C1CN(c2csc(-c3ccccc3)c2)S(=O)(=O)N1` [5-(5-phenyl-3-thienyl)-1,2,5-thiadiazolidin-3-one 1,1-dioxide] was 3.82.

As for `O=C1CN(c2csc(-c3cccc(NC4CCCCC4)c3)c2Cl)S(=O)(=O)N1` [5-{4-chloro-5-[3-(cyclohexylamino)phenyl]-3-thienyl}-1,2,5-thiadiazolidin-3-one 1,1-dioxide], the pKi was 4.85.
